A short description of data set [1]: Intrinsic toxicity of test compound in uninfected CEM cells (MTT). Particulars: human. An excerpt:
(§1) Methods, 20, 309-321 (1988).
(§2) [table 42: the next 8 blocks are its lines as printed, fixed-width]

Data set [2] concerns HIV-1 in CEM cells. The experiment in a line: HIV inhibition assay of acutely infected CEM cells (tetrazolium/MTT colorimetric), antiviral efficacy. The format is cell-based. The settings on record: Human immunodeficiency virus 1, CCRF-CEM, 168 h.
Excerpt: as §1, §2

Data set [3] addresses T1, HIV protease (Human immunodeficiency virus type 1 group M subtype B, UniProt P04585).
T1 construct: HIV protease is diluted in the assay buffer to a final enzyme concentration of 12.3 nanomolar, based on a molecular weight of 10,780
The experiment in a line: biochemical. The format is biochemical. The settings on record: Table 21; above-described enzyme assay. The method, then: The enzyme method is described below. […] The positive control is MVT-101 (Miller, M. et al, Science, 246, 1149 (1989)]. The assay conditions are as follows:
20 mM sodium phosphate, pH 6.4
The above described substrate is dissolved in DMSO, then diluted 10 fold in assay buffer. Final substrate concentration in the assay is 80 μM.
The final concentration of DMSO is 14% and the final concentration of glycerol is 18%. The test compound is dissolved in DMSO and diluted in DMSO to 10× the test concentration; 10 μl of the enzyme preparation is added, the materials mixed and then the mixture is incubated at ambient temperature for 15 minutes. The enzyme reaction is initiated by the addition of 40μl of substrate. The increase in fluorescence is monitored at 4 time points (0, 8, 16 and 24 minutes) at ambient temperature. Each assay is carried out in duplicate wells.

The CC50 is the concentration giving 50% cytotoxicity. Lower therefore signals harm at low concentration. A word on the EC50: it is the concentration giving half of the maximal effect. In turn, `COc1ccc(S(=O)(=O)N(CC(C)C)C[C@@H](O)[C@H](Cc2ccccc2)NC(=O)OCc2ccncc2)cc1` [Example 22] gave a CC50 at 168 h in data set [1] of 31000 nM. In data set [2], this compound registered an EC50 of 18 nM.
The matching figures for `CC(C)CN(C[C@@H](O)[C@H](Cc1ccccc1)NC(=O)OCc1cccnc1)S(=O)(=O)c1ccccc1` [Example 16]: 62000 nM and 80 nM.
Taken in the same sequence, the figures for `COc1ccc(COC(=O)NC[C@@H](C)C(=O)N[C@@H](Cc2ccccc2)[C@H](O)CN(CCC(C)C)S(=O)(=O)c2ccccc2)cc1` [Example 3] were 780 nM and 11 nM.
On to `CSCCCN(C[C@@H](O)[C@H](Cc1ccccc1)NC(=O)OCc1ccccc1)S(=O)(=O)c1ccccc1` [Example 10], for which the CC50 at 168 h in data set [1] came out at 12 nM. Also, it took 700 nM to reach a half-maximal effect in data set [2] (EC50).
The matching figures for `CC(C)CCN(C[C@@H](O)[C@H](Cc1ccccc1)NC(=O)[C@H](CC(N)=O)NC(=O)c1ccc2ccccc2n1)S(C)(=O)=O` [Example 4]: 28 nM and 64 nM.
In the case of `CC(C)CCN(C[C@@H](O)[C@H](Cc1ccccc1)NC(=O)[C@@H](NC(=O)CN(C)C)C(C)(C)C)S(=O)(=O)c1ccccc1` [Example 11], in data set [1], half-maximal cytotoxicity (CC50 at 168 h) was put at 54 nM. A half-maximal response in data set [2] (EC50) required 11 nM.
Usually IC50 stands for the point on the concentration scale where inhibition reaches its midpoint. Higher therefore signals lower potency. On to `CCCN(C[C@@H](O)[C@H](Cc1ccccc1)NC(=O)[C@H](CC(N)=O)NC(=O)OCc1ccccc1)S(=O)(=O)c1ccccc1` [Example 7], for which the CC50 at 168 h in data set [1] (cem cells) was determined as 39 nM. In data set [2], this compound registered an EC50 of 25 nM. Besides, half-maximal inhibition in data set [3] (IC50) was put at 3 nM.
In turn, `COc1ccc(S(=O)(=O)N(CC(C)C)C[C@@H](O)[C@H](Cc2ccccc2)NC(=O)c2c(C)cccc2C)cc1` [Example 32] returned a CC50 at 168 h in data set [1] of 17000 nM. This compound also returned an EC50 in data set [2] of 98 nM.
`COc1ccc(S(=O)(=O)N(CC(C)C)C[C@@H](O)[C@H](Cc2ccccc2)NC(=O)c2ccccc2C)cc1` [Example 29] registered a CC50 at 168 h in data set [1] of 196000 nM. This compound came in with an EC50 in data set [2] of 105 nM.
The matching figures for `COc1ccc(S(=O)(=O)N(CC(C)C)C[C@@H](O)[C@H](Cc2ccccc2)NC(=O)c2ccccc2)cc1` [Example 28]: 213000 nM and 76 nM.
`CC(C)CCN(C[C@@H](O)[C@H](Cc1ccccc1)NC(=O)[C@H](Cc1cnc[nH]1)NC(=O)c1ccc2ccccc2n1)S(=O)(=O)c1ccccc1` [Example 12] returned a CC50 at 168 h in data set [1] of 7.5 nM. The compound further showed an EC50 in data set [2] of 12 nM.
In data set [1], `O=C(N[C@@H](Cc1ccccc1)[C@H](O)CN(C1CCCCC1)S(=O)(=O)c1ccccc1)OCc1ccccc1` [Example 5] displayed a 50% cytotoxic concentration (CC50) at 168 h of 11 nM. The compound further showed an EC50 in data set [2] of 88 nM.
As to `COc1ccc(S(=O)(=O)N(CC(C)C)C[C@@H](O)[C@H](Cc2ccccc2)NC(=O)c2ccccc2Cl)cc1` [Example 30], half-maximal cytotoxicity in data set [1] (CC50 at 168 h) was put at 154000 nM. This compound also came in with an EC50 in data set [2] of 154 nM.

Values taken from patent publication US6046190A, “Hydroxyethylamino sulphonamides useful as retroviral protease inhibitors” (G.D. Searle & Co., priority 1996, dated 2000).
